Assay results from the NIST ThermoML archive (doi:10.1016/j.fluid.2010.10.028).

Test: xn = mol fraction of the nth substance listed
Conditions: Liquid, Vibrating tube method

CC(C)=O [acetone] + CCCCCCC
Conditions	mass density [kg/m3]
407.22 K, 24840 kPa, x1 = 0.492	637.87
407.22 K, 24850 kPa, x1 = 0.611	645.53
407.22 K, 24850 kPa, x1 = 0.801	663.77
407.22 K, 29850 kPa, x1 = 0.492	645.2
407.22 K, 29860 kPa, x1 = 0.801	671.47
407.22 K, 29870 kPa, x1 = 0.611	653.05
407.22 K, 34850 kPa, x1 = 0.801	678.52
407.22 K, 34860 kPa, x1 = 0.611	659.9
407.22 K, 39850 kPa, x1 = 0.801	685.05
407.22 K, 39860 kPa, x1 = 0.611	666.23
407.22 K, 44860 kPa, x1 = 0.801	691.11
407.22 K, 44870 kPa, x1 = 0.611	672.1
407.22 K, 49870 kPa, x1 = 0.611	677.58
407.22 K, 54850 kPa, x1 = 0.611	682.71
407.22 K, 59830 kPa, x1 = 0.611	687.58
407.22 K, 59840 kPa, x1 = 0.492	679.01
407.22 K, 59840 kPa, x1 = 0.801	707.14
407.22 K, 64930 kPa, x1 = 0.611	692.3
407.22 K, 69830 kPa, x1 = 0.801	716.45
407.22 K, 69920 kPa, x1 = 0.611	696.69
407.22 K, 74910 kPa, x1 = 0.611	700.88
407.22 K, 74920 kPa, x1 = 0.801	720.89
407.22 K, 79900 kPa, x1 = 0.611	704.88
407.22 K, 79920 kPa, x1 = 0.801	725.05
407.22 K, 84880 kPa, x1 = 0.611	708.71
407.22 K, 84890 kPa, x1 = 0.801	729.04
407.22 K, 89850 kPa, x1 = 0.611	712.41
407.22 K, 89860 kPa, x1 = 0.492	703.26
407.22 K, 89890 kPa, x1 = 0.801	732.88
407.22 K, 94740 kPa, x1 = 0.4	750.92
407.22 K, 94740 kPa, x1 = 0.8992	750.92
407.22 K, 94840 kPa, x1 = 0.611	715.96
407.22 K, 94870 kPa, x1 = 0.801	736.56
407.22 K, 99720 kPa, x1 = 0.4	754.58
407.22 K, 99720 kPa, x1 = 0.8992	754.58
407.22 K, 99820 kPa, x1 = 0.611	719.38
407.22 K, 99840 kPa, x1 = 0.801	740.12
407.22 K, 104690 kPa, x1 = 0.4	758.09
407.22 K, 104690 kPa, x1 = 0.8992	758.09
407.22 K, 104790 kPa, x1 = 0.611	722.68
407.22 K, 104820 kPa, x1 = 0.801	743.55
407.22 K, 109650 kPa, x1 = 0.4	761.5
407.22 K, 109650 kPa, x1 = 0.8992	761.5
407.22 K, 109770 kPa, x1 = 0.492	716.44
407.22 K, 109790 kPa, x1 = 0.801	746.89
407.22 K, 109860 kPa, x1 = 0.611	725.93
407.22 K, 114620 kPa, x1 = 0.4	764.8
407.22 K, 114620 kPa, x1 = 0.8992	764.8
407.22 K, 114770 kPa, x1 = 0.801	750.12
407.22 K, 114860 kPa, x1 = 0.492	719.55
407.22 K, 114870 kPa, x1 = 0.611	729.06
407.22 K, 119590 kPa, x1 = 0.4	768
407.22 K, 119590 kPa, x1 = 0.8992	768
407.22 K, 119840 kPa, x1 = 0.492	722.47
407.22 K, 119840 kPa, x1 = 0.801	753.32
407.22 K, 119850 kPa, x1 = 0.611	732.05
407.22 K, 124560 kPa, x1 = 0.4	771.11
407.22 K, 124560 kPa, x1 = 0.8992	771.11
407.22 K, 124850 kPa, x1 = 0.492	725.34
407.22 K, 124850 kPa, x1 = 0.611	735.01
407.22 K, 124850 kPa, x1 = 0.801	756.37
407.22 K, 129820 kPa, x1 = 0.4	774.33
407.22 K, 129820 kPa, x1 = 0.8992	774.33
407.22 K, 129840 kPa, x1 = 0.611	737.84
407.22 K, 129840 kPa, x1 = 0.801	759.34
407.23 K, 4820 kPa, x1 = 0.7024	611.92
407.23 K, 9850 kPa, x1 = 0.492	610.28
407.23 K, 14860 kPa, x1 = 0.492	620.71
407.23 K, 19860 kPa, x1 = 0.492	629.81
407.23 K, 24820 kPa, x1 = 0.7024	653.51
407.23 K, 29820 kPa, x1 = 0.7024	661.13
407.23 K, 34840 kPa, x1 = 0.492	651.87
407.23 K, 39860 kPa, x1 = 0.492	658.08
407.23 K, 44850 kPa, x1 = 0.492	663.81
407.23 K, 49840 kPa, x1 = 0.801	696.75
407.23 K, 49850 kPa, x1 = 0.492	669.19
407.23 K, 54850 kPa, x1 = 0.801	702.09
407.23 K, 54860 kPa, x1 = 0.492	674.25
407.23 K, 64830 kPa, x1 = 0.492	683.5
407.23 K, 64830 kPa, x1 = 0.801	711.9
407.23 K, 69930 kPa, x1 = 0.492	687.88
407.23 K, 74910 kPa, x1 = 0.492	691.98
407.23 K, 79890 kPa, x1 = 0.492	695.9
407.23 K, 84870 kPa, x1 = 0.492	699.66
407.23 K, 94840 kPa, x1 = 0.492	706.73
407.23 K, 99820 kPa, x1 = 0.492	710.09
407.23 K, 104790 kPa, x1 = 0.492	713.3
407.23 K, 129830 kPa, x1 = 0.492	728.11
407.24 K, 1620 kPa, x1 = 0.7024	602.1
407.24 K, 9830 kPa, x1 = 0.7024	624.8
407.24 K, 14840 kPa, x1 = 0.7024	635.66
